One compound from patent US20190365675A1, “COMPOSITIONS FOR THE PREVENTION AND/OR TREATMENT OF ALCOHOL USE DISORDERS” (SERVICIO ANDALUZ DE SALUD, priority 2016, published 2019) can be followed below.

One experiment relates to IκBα. Kind of experiment: IκBα mRNA and protein in frontal cortex cytosol extracts after ethanol intoxication. Format: in vivo, Wistar rats. The conditions noted are these: OEA pre-treatment. Here is the method:
The animals were treated with intragastric (i.g.) ethanol 3 times a day using an i.g. cannula (16G needle, Fisher Scientific, Waltham, Mass., USA), following a protocol based on a slightly modified standard 4-day alcohol intoxication pattern (Bernier et al., 2002a, b) (FIG. 1A). The ethanol doses were administered every 8 h for a total time of 4 days. The rats treated with ethanol received an initial loading dose of 5 g/kg of ethanol in a 30% solution (w/v) and then a maximum maintenance dose of 3 g/kg, which were determined based on blood ethanol levels (BEL). This repeated standard alcohol intoxication paradigm kept BEL intoxication relatively constant in a range of sedation/ataxia (190 to 430 mg/dl, Table 3), according to the 6-point alcohol intoxication behavior scale (Majchrowicz, 1975). The mean dose of ethanol/rat/day (days 1-4) was 7.06 g/kg, similar to other studies (Obernier et al., 2002a, b). […] The autoradiograph was quantified by densitometry (NIH ImageJ® software, National Biosciences, Lincoln, Nebr. USA) and expressed as optical density (OD). […] The quantitative changes in mRNA levels were estimated by means of RT-PCR, carried out in the presence of the SYBR green primer using a 20-L reaction in a Rotor-Gene (Corbett Research®, Mortlake, NSW, Australia). […]

For another experiment, the system named is corticosterone. Kind of experiment: Plasma corticosterone levels (R.I.A.). It is filed as in vivo, Wistar rats. As to the method: The animals were treated with intragastric (i.g.) ethanol 3 times a day using an i.g. cannula (16G needle, Fisher Scientific, Waltham, Mass., USA), following a protocol based on a slightly modified standard 4-day alcohol intoxication pattern (Bernier et al., 2002a, b) (FIG. 1A). The ethanol doses were administered every 8 h for a total time of 4 days. The rats treated with ethanol received an initial loading dose of 5 g/kg of ethanol in a 30% solution (w/v) and then a maximum maintenance dose of 3 g/kg, which were determined based on blood ethanol levels (BEL). This repeated standard alcohol intoxication paradigm kept BEL intoxication relatively constant in a range of sedation/ataxia (190 to 430 mg/dl, Table 3), according to the 6-point alcohol intoxication behavior scale (Majchrowicz, 1975). The mean dose of ethanol/rat/day (days 1-4) was 7.06 g/kg, similar to other studies (Obernier et al., 2002a, b). […]
Corticosterone and LPS were measured in plasma by means of the use of radioimmunoassay (R.I.A.) kits available on the market (Coat-A-Count®, Siemens, La., USA) or colorimetric enzymatic reaction (HyCult Biotech, Uden, Netherlands), respectively.

`CCCCCCCC/C=C\CCCCCCCC(=O)NCCO` [OEA, oleoylethanolamide]: in the experiment on IκBα (frontal cortex cytosol extracts), the “Ethanol-induced IκBα protein expression” value is “did not counteract”. Besides, the “Ethanol-induced increase in IκBα mRNA levels” value in the experiment with IκBα (frontal cortex) is on record as “did not counteract”. Moreover, the “Plasma corticosterone levels in the control animals” value in the experiment with corticosterone (control animals (no ethanol)) was “did not modify”. Further, in the experiment with corticosterone (plasma, 2-4 h after last ethanol, OEA pre-treatment), the “Ethanol-induced increase in plasma corticosterone levels” value is recorded as “prevented entirely”.
